Measured values taken from ChEMBL document CHEMBL1201862, “PubChem BioAssay data set” (2004).
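Values below derive from 48-hour exposures of cells grown in 96-well plates, with endpoints linearly interpolated between the two concentrations bracketing the appropriate inhibition level. GI50: concentration for 50% inhibition of growth.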 Activity calls are given as the source filed them. Cut-off read from the data, not from the text of the source: active = GI50 up to about 1.1 µM and inactive = higher.

Key:
Assay in all cases: inhibition of tumour cell growth, NCI panel, 48 h
DMS-114 = tested on: DMS-114
NCI-H460 = tested on: NCI-H460
NCI-H226 = tested on: NCI-H226
UACC-62 = tested on: UACC-62
KM-20L2 = tested on: KM-20L2
HOP-62 = tested on: HOP-62
IGROV-1 = tested on: IGROV-1
SNB-78 = tested on: SNB-78
OVCAR-3 = tested on: OVCAR-3
ACHN = tested on: ACHN
CCRF-CEM = tested on: CCRF-CEM
KM12 = tested on: KM12
SK-MEL-5 = tested on: SK-MEL-5
COLO 205 = tested on: COLO 205
M19-MEL = tested on: M19-MEL
NCI-H23 = tested on: NCI-H23
RPMI-8226 = tested on: RPMI-8226
HCT-116 = tested on: HCT-116
786-0 = tested on: 786-0
SNB-19 = tested on: SNB-19
SK-MEL-28 = tested on: SK-MEL-28
TK-10 = tested on: TK-10
EKVX = tested on: EKVX
SK-MEL-2 = tested on: SK-MEL-2
K562 = tested on: K562
UACC-257 = tested on: UACC-257
HT-29 = tested on: HT-29
DMS-273 = tested on: DMS-273
U-251 = tested on: U-251
MOLT-4 = tested on: MOLT-4
HCT-15 = tested on: HCT-15
A549 = tested on: A549
DLD-1 = tested on: DLD-1
RXF 393 = tested on: RXF 393
OVCAR-5 = tested on: OVCAR-5
UO-31 = tested on: UO-31
SN12C = tested on: SN12C
SK-OV-3 = tested on: SK-OV-3
HCC 2998 = tested on: HCC 2998
SF-539 = tested on: SF-539
HOP-18 = tested on: HOP-18
A498 = tested on: A498
XF498 = tested on: XF498
SNB-75 = tested on: SNB-75
M14 = tested on: M14
SF-268 = tested on: SF-268
Malme-3M = tested on: Malme-3M
HOP-92 = tested on: HOP-92
SR = tested on: SR
OVCAR-4 = tested on: OVCAR-4
LXFL 529 = tested on: LXFL 529
OVCAR-8 = tested on: OVCAR-8
HL-60 = tested on: HL-60
LOX IMVI = tested on: LOX IMVI
CAKI-1 = tested on: CAKI-1
SF-295 = tested on: SF-295
NCI-H522 = tested on: NCI-H522

## CCOC(OC1=C(C#N)CCCC1)C(C)[Se]c1ccccc1 (configuration not stated)
DMS-114
  GI50: 4.29 µM (inactive)
NCI-H460
  GI50: 54.1 µM (inactive)
NCI-H226
  GI50: 30.7 µM (inactive)
UACC-62
  GI50: 19.2 µM (inactive)
KM-20L2
  GI50: 62.7 µM (inactive)
HOP-62
  GI50: 78.3 µM (inactive)
IGROV-1
  GI50: 29.2 µM (inactive)
SNB-78
  GI50: > 100 µM (inactive)
OVCAR-3
  GI50: 31.6 µM (inactive)
ACHN
  GI50: 44.5 µM (inactive)
CCRF-CEM
  GI50: 21.7 µM (inactive)
KM12
  GI50: > 100 µM (inactive)
SK-MEL-5
  GI50: 20.6 µM (inactive)
COLO 205
  GI50: 39.7 µM (inactive)
M19-MEL
  GI50: 29.2 µM (inactive)
NCI-H23
  GI50: 16 µM (inactive)
RPMI-8226
  GI50: 28.3 µM (inactive)
HCT-116
  GI50: 30.1 µM (inactive)
786-0
  GI50: 15.5 µM (inactive)
SNB-19
  GI50: 54.5 µM (inactive)
SK-MEL-28
  GI50: 26 µM (inactive)
TK-10
  GI50: > 100 µM (inactive)
EKVX
  GI50: 28.7 µM (inactive)
SK-MEL-2
  GI50: > 100 µM (inactive)
K562
  GI50: 62.1 µM (inactive)
UACC-257
  GI50: 74.6 µM (inactive)
HT-29
  GI50: 52.6 µM (inactive)
DMS-273
  GI50: 16.3 µM (inactive)
U-251
  GI50: 13.4 µM (inactive)
MOLT-4
  GI50: 29 µM (inactive)
HCT-15
  GI50: 36.8 µM
A549
  GI50: 84.3 µM (inactive)
DLD-1
  GI50: 36.2 µM (inactive)
RXF 393
  GI50: 15.2 µM (inactive)
OVCAR-5
  GI50: > 100 µM (inactive)
UO-31
  GI50: 43.6 µM (inactive)
SN12C
  GI50: 25.2 µM (inactive)
SK-OV-3
  GI50: > 100 µM (inactive)
HCC 2998
  GI50: > 100 µM (inactive)
SF-539
  GI50: 18.1 µM (inactive)
HOP-18
  GI50: 38.5 µM (inactive)
A498
  GI50: > 100 µM (inactive)
XF498
  GI50: 23.6 µM (inactive)
SNB-75
  GI50: 36.9 µM (inactive)
M14
  GI50: 28.9 µM (inactive)
SF-268
  GI50: 18.5 µM (inactive)
Malme-3M
  GI50: 55.3 µM (inactive)
HOP-92
  GI50: 31.6 µM (inactive)
SR
  GI50: 20.7 µM (inactive)
OVCAR-4
  GI50: 21.7 µM (inactive)
LXFL 529
  GI50: 22.7 µM (inactive)
OVCAR-8
  GI50: 24.3 µM (inactive)
HL-60
  GI50: 17.3 µM (inactive)
LOX IMVI
  GI50: 16 µM (inactive)
CAKI-1
  GI50: 65.2 µM (inactive)
SF-295
  GI50: 33.3 µM (inactive)
NCI-H522
  GI50: 16 µM (inactive)
